Like-named read-outs stand apart in the source and are kept apart here.
Key:
[1] = tested on: Escherichia coli, Bacillus subtilis, Mycobacterium smegmatis; details: cited from earlier work
[2] = target: cysteine adenylation domain of HMWP2 (residues 1–1491) (Yersinia pestis, UniProt A0A2S9PH42); format: biochemical
[3] = tested on: aminoacyl-tRNA synthetases; format: biochemical, rabbit
Y. pestis [4] = format: cell-based, Yersinia pestis
Y. pestis [5] = details: cited from earlier work

cysteine adenylation domain of HMWP2 (residues 1–1491), sequence (A0A2S9PH42 1-1491 limits assumed): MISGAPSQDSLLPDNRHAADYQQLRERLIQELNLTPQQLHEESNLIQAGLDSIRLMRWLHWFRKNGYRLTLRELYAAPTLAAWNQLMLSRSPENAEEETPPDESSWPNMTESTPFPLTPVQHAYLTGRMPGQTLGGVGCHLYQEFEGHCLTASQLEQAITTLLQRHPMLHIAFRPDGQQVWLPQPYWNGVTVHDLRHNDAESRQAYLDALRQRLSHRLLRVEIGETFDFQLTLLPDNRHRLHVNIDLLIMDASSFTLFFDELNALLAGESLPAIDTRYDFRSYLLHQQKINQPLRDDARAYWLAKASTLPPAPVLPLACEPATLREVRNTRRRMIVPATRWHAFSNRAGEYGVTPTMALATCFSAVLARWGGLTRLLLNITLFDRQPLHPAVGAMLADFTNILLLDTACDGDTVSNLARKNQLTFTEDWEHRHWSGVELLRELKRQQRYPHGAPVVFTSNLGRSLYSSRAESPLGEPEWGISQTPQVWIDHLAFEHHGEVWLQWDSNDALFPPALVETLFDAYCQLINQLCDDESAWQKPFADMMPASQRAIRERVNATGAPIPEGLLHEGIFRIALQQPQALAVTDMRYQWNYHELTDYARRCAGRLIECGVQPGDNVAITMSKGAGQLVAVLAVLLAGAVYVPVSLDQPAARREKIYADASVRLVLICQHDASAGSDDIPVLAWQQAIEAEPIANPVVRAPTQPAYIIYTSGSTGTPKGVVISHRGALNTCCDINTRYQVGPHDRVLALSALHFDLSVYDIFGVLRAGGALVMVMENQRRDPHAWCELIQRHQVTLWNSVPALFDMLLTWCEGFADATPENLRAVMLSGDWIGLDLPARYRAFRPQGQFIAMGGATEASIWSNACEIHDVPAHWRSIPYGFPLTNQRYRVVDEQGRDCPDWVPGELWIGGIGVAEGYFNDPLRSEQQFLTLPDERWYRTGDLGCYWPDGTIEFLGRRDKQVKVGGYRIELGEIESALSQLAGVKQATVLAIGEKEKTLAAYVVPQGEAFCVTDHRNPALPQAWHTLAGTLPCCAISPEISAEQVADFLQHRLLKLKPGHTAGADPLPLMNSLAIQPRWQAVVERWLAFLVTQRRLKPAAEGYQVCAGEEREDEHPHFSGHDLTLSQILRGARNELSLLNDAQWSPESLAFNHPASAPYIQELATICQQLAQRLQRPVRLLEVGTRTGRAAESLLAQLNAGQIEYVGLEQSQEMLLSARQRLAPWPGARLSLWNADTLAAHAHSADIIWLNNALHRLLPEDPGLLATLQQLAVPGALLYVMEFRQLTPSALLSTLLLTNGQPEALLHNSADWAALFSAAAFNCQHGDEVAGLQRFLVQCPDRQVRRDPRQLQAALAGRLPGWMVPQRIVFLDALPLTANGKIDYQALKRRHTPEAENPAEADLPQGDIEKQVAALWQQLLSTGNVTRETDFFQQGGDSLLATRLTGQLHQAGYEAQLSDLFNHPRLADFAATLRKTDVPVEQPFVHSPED

C[C@H](N)C(=O)NS(=O)(=O)OC[C@H]1O[C@@H](n2cnc3c(N)ncnc32)[C@H](O)[C@@H]1O [4a, alanyl-AMS]
penetration of bacteria above the limits of detection ([1]; E. coli, B. subtilis, M. smegmatis): did not penetrate

C[C@H](O)C(=O)NS(=O)(=O)OC[C@H]1O[C@@H](n2cnc3c(N)ncnc32)[C@H](O)[C@@H]1O [4b, lactyl-AMS]
intracellular concentration ([1]; all three strains (E. coli, B. subtilis, M. smegmatis), 100 µM extracellular concentration applied): 28 to 53 µM

Nc1ncnc2c1ncn2[C@@H]1O[C@H](COS(=O)(=O)NC(=O)[C@@H](N)CS)[C@@H](O)[C@H]1O [4c, cysteyl-AMS]
increase in HMWP2 inhibition on inclusion of β-thio group [2]: ≈ 2 orders of magnitude | increase in inhibitory potency by β-thiol side chain [2]: 30–60 fold

Nc1ncnc2c1ncn2[C@@H]1O[C@H](COS(=O)(=O)NC(=O)[C@@H](O)CS)[C@@H](O)[C@H]1O [4d, α-hydroxy-cysteyl-AMS]
IC50 relative to alanyl-AMS (4a) [2]: ≤ 15 fold | increase in HMWP2 inhibition on inclusion of β-thio group [2]: ≈ 2 orders of magnitude | increase in inhibitory potency by β-thiol side chain [2]: 30–60 fold

Nc1ncnc2c1nc1n2[C@@H]2O[C@H](COS(=O)(=O)NC(=O)[C@@H](N)CCC1)[C@@H](O)[C@H]2O [5a, cyclo-alanyl-AMS]
inhibitory activity in in vitro translation assay [3]: inactive | inhibition of yersiniabactin production (Y. pestis [4]): did not inhibit

Nc1ncnc2c1nc1n2[C@@H]2O[C@H](COS(=O)(=O)NC(=O)[C@@H](O)CCC1)[C@@H](O)[C@H]2O [5b, cyclo-lactyl-AMS]
inhibitory activity in in vitro translation assay [3]: inactive

salicyl-AMS
inhibition of yersiniabactin production (Y. pestis [5]): blocks yersiniabactin production
